For 2 molecules, MIC results are on record in patent US4331606A, “N-(Substituted chromone-3-carbonyl)-phenylglycine derivatives” (Eisai Co., Ltd., priority 1980, dated 1982).

Converted amounts (≈) assume the structure as drawn. A value given as a limit tells only on which side of the number the result lay.

Holding throughout (type): cell-based
One test deals with Escherichia coli NIHJ. Kind of test: Antibacterial Activity (MIC) against Escherichia coli NIHJ.
For another test, the system named is Proteus morganii EP-14. Kind of test: Antibacterial Activity (MIC) against Proteus morganii EP-14. As to conditions: Morganella morganii, EP14.
The test system of test [1] is Serratia marcescens ES-75. Description: Antibacterial Activity (MIC) against Serratia marcescens ES-75. As to conditions: ES75.
Test [2] deals with Pseudomonas aeruginosa EP-172. Description: Antibacterial Activity (MIC) against Pseudomonas aeruginosa EP-172. As to conditions: EP172.
Test [3] concerns Staphylococcus aureus 209-P. Kind of test: Antibacterial Activity (MIC) against Staphylococcus aureus 209-P.
The test system of test [4] is Klebsiella pneumoniae EK-6. Description: Antibacterial Activity (MIC) against Klebsiella pneumoniae EK-6. As to conditions: EK6.

In general, MIC refers to the lowest concentration found to suppress growth. Low values mean a more susceptible organism, high ones a less susceptible organism. Take `CCOC(=O)Oc1cc2occ(C(=O)N[C@@H](C(=O)N[C@@H]3C(=O)N4C(C(=O)O)=C(CSc5nnnn5CC(=O)O)CS[C@H]34)c3ccc(O)cc3)c(=O)c2cc1OC(=O)OCC` [Preparatory Example 2 (A), 7β-[D-2-{6,7-bis(ethoxycarbonyloxy)chromone-3-carboxamido}-2-(4-hydroxyphenyl)acetamido]-3-[(1-carboxymethyl-5-tetrazolyl)thiomethyl]-3-cephem-4-carboxylic acid]: the MIC against Escherichia coli NIHJ was 0.4 µg/mL (≈ 0.46 µM); in the test with Proteus morganii EP-14, 1.56 µg/mL (≈ 1.79 µM); in test [1], at least 0.05 µg/mL; in test [2] it was 0.8 µg/mL (≈ 0.92 µM); in test [3] it was 6.25 µg/mL (≈ 7.19 µM); in test [4], at least 0.05 µg/mL.

As for `O=C(O)Cn1nnnc1SCC1=C(C(=O)O)N2C(=O)[C@@H](NC(=O)[C@H](NC(=O)c3coc4cc(O)c(O)cc4c3=O)c3ccc(O)cc3)[C@H]2SC1` [Preparatory Example 2 (B), 7β-[D-2-(6,7-Dihydroxychromone-3-carboxyamido)-2-(4-hydroxyphenyl)acetamido]-3-[(1-carboxymethyl-5-tetrazolyl)thiomethyl]-cephem-4-carboxylic acid], the minimum inhibitory concentration (MIC) against Escherichia coli NIHJ was 0.4 µg/mL (≈ 0.551 µM); against Proteus morganii EP-14, 12.5 µg/mL (≈ 17.2 µM); in test [1], at least 0.1 µg/mL; in test [2], 0.8 µg/mL (≈ 1.1 µM); in test [3], 3.13 µg/mL (≈ 4.31 µM); in test [4], at least 0.1 µg/mL.
